Results as given in paper PMC11714206, “Massively Parallel Screening of Toll/Interleukin‐1 Receptor (TIR)‐Derived Peptides Reveals Multiple Toll‐Like Receptors (TLRs)‐Targeting Immunomodulatory Peptides” (Advanced Science, 2024).

Molecular target: T1, MyD88^TIR (Homo sapiens, UniProt Q99836)
T1 construct: MyD88 (residues 148–296); 6xHis; made in house; host or cells: E. coli BL21 (DE3)
Experiment: T‐Surf phage library (P8 and P3) selection against MyD88^TIR, four rounds, NGS read counts
Assay type: binding
Details: for P8_MyD88 Rank (after) / P8_MyD88 Rank (before): P8 library; for P3_MyD88 Rank (after) / P3_MyD88 Rank (before): P3 library; for Population: 4th round of selection against MyD88 TIR, share of NGS reads
Procedure: T‐Surf libraries were screened against the immobilized TIR domains of two major human TLR adaptor proteins, MAL^TIR and MyD88^TIR, allowing cross‐species selection of TIR‐binding motifs with 190 946 TIR‐derived peptides in a single binding assay (Scheme 1). Enriched phage pools from the fourth round of selection were analyzed using NGS after barcoding the peptide‐coding regions of the phage pools.
Phage display screening was performed by coating two wells of a 96‐well plate (Maxisorp, Thermo Fisher Scientific) with 100 µL of 5 µg mL^−1 TIR domains overnight; then, the coated wells were blocked with 200 µL of blocking buffer (0.2% BSA in PBS) and set aside for 1 h at 4 °C with gentle shaking. Next, 100 µL of the phage library was added to the wells and incubated for 1 h at room temperature (RT; 20 – 22 °C) with gentle shaking. The plate was washed four times with PBS containing 0.5% Tween‐20; the bound phages were eluted by adding 100 µL of 100 mM HCl to each well. The elute was neutralized with 10 µL of 1.0 M Tris‐HCl (pH 11.0). E. coli TG1 cells were grown to the log phase (A600 = ≈0.6), and 1 mL of the culture was incubated with 100 µL of the eluted phages for 30 min at 37 °C, with shaking at 200 rpm. Next, 1 µL of M13KO7 helper phages was added, followed by incubation for 45 min at 37 °C, with shaking. Subsequently, the cells were transferred to 25 mL of 2× yeast extract tryptone/carbenicillin/kanamycin medium and incubated overnight at 37 °C with shaking at 200 rpm. The amplified phages were precipitated with 20% PEG‐8000/2.5 M NaCl to be used for the next round of selection.
The naïve T‐Surf libraries in P8 and P3 and the enriched phage pools after four rounds were barcoded for NGS as previously described.^[ [59] ^] Briefly, 5 µL of the phage pool was used as a template for 20 cycles of a 50 µL PCR reaction using […] each of forward and reverse barcoded primers and PrimeSTAR Max DNA Polymerase. The PCR products were purified using Expin Gel SV (GeneAll). The NGS samples were quantified using qPCR, following the qPCR Quantification Protocol Guide (KAPA Library Quantification kits for Illumina Sequencing Platform), and qualified using the TapeStation High Sensitivity D1000 ScreenTape (Agilent Technologies). The indexed libraries were further sequenced by Macrogen (Seoul, Republic of Korea) using the NovaSeq platform (Illumina) with 100 bp paired‐end reads. The reads were demultiplexed by barcodes and filtered for an average Phred quality score of at least 30, followed by trimming the flanking consensus sequences using Cutadapt (version 2.3). Peptide sequence populations were analyzed according to the read counts.

[1] = 4R selection against MyD88, rank after grouping
[2] = 4R selection against MyD88, rank before grouping
[3] = selection against MyD88, rank by count after grouping
[4] = selection against MyD88, rank by count before grouping
[5] = P8_MyD88: rank by NGS read count after grouping
[6] = P8_MyD88: rank by NGS read count before grouping
[7] = selection against MyD88, rank after grouping
[8] = selection against MyD88, rank before grouping
[9] = selection against MyD88 TIR, rank by count after grouping
[10] = selection against MyD88 TIR, rank by count before grouping
[11] = P3_MyD88: rank by count after grouping
[12] = P3_MyD88: rank by count before grouping
[13] = P8_MyD88: rank by count after grouping
[14] = P8_MyD88: rank by count before grouping
[15] = P8_MyD88 pool: P8 T-Surf phage library
[16] = P3_MyD88 pool: P3 T-Surf phage library

T1 sequence (Q99836 148-296): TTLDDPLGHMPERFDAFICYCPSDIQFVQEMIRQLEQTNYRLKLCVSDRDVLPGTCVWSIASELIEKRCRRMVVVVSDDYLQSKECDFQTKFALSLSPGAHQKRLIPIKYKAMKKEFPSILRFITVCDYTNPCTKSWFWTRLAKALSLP

Sequence: IDDDHLTYLVRLLYSL
- P8_MyD88 Rank (after) [1]: 607
- P8_MyD88 Rank (before) [2]: 3631

Sequence: PEKDNGGENAFINTL
- P3_MyD88 Rank (after) [3]: 731
- P3_MyD88 Rank (before) [4]: 2715

Sequence: WALDDLLQILQARELF
- Rank (after) [5]: 988
- Rank (before) [6]: 1523

Sequence: SLLYDHLRWLGIRAFL
- P8_MyD88 Rank (after) [7]: 541
- P8_MyD88 Rank (before) [8]: 3759

Sequence: DPQDLAWSYERLVSLF
- P8_MyD88 Rank (after) [9]: 255
- P8_MyD88 Rank (before) [10]: 2732

Sequence: WALAELLKILYAKEPM
- P8_MyD88 Rank (after) [3]: 763
- P8_MyD88 Rank (before) [4]: 1399

Sequence: DPQVLEWFYELLVSLL
- P8_MyD88 Rank (after) [3]: 684
- P8_MyD88 Rank (before) [4]: 2656

Sequence: IDDDHLYAALVQAGIL
- P8_MyD88 Rank (after) [1]: 639
- P8_MyD88 Rank (before) [2]: 3622

Sequence: LGYHWIEWEDFVVIED
- Rank (after) [5]: 872
- Rank (before) [6]: 3293

Sequence: DPQDLGCFYERLVSLF
- P8_MyD88 Rank (after) [1]: 611
- P8_MyD88 Rank (before) [2]: 2721

Sequence: LVAHEISKKRKIFATS
- P3_MyD88 Rank (after) [7]: 511
- P3_MyD88 Rank (before) [8]: 2306

Sequence: LKVDSWRQALEKAGNL
- Rank (after) [11]: 117
- Rank (before) [12]: 2469

Sequence: DPQDLVWFYERLVSIV
- Rank (after) [5]: 986
- Rank (before) [6]: 2713

Sequence: DPQGLVCYYERLVSLL
- P8_MyD88 Rank (after) [1]: 595
- P8_MyD88 Rank (before) [2]: 2662

Sequence: LKWGDPYFCSKLRYPM
- Rank (after) [11]: 403
- Rank (before) [12]: 2415

Sequence: WALVKLLKILYANDTM
- Rank (after) [5]: 949
- Rank (before) [6]: 1406

Sequence: DPQDMEWFYERLVSLIL
- P8_MyD88 Rank (after) [1]: 602
- P8_MyD88 Rank (before) [2]: 2975

Sequence: PRDLEWLYERLVSLIL
- P8_MyD88 Rank (after) [9]: 278
- P8_MyD88 Rank (before) [10]: 3410

Sequence: FDARTWFFQEMGIIVE
- P8_MyD88 Rank (after) [1]: 603
- P8_MyD88 Rank (before) [2]: 1307

Sequence: DIQWALQKLMQIMEAF
- P8_MyD88 Rank (after) [3]: 676
- P8_MyD88 Rank (before) [4]: 3070

Sequence: LVAHEISKMMKVFATI
- P3_MyD88 Rank (after) [3]: 694
- P3_MyD88 Rank (before) [4]: 2285

Sequence: DYASSSWALDVLWNIF
- Rank (after) [5]: 950
- Rank (before) [6]: 2507

Sequence: DWLPGRTLFENLWASV
- Rank (after) [13]: 152
- Rank (before) [14]: 164
- Population [15]: 0.00886%

Sequence: LKVESWRQALEKADKL
- Population [16]: 0.00408%

Sequence: SSFRESLWRLLELSKK
- Population [16]: 0.0032%

Sequence: SELRVVDDGSVSPPNL
- P3_MyD88 Rank (after) [7]: 570
- P3_MyD88 Rank (before) [8]: 3040

Sequence: LKEEHCHQALEKAGKL
- Rank (after) [11]: 460
- Rank (before) [12]: 2535

Sequence: AVDKETDKIQTAEKC
- P3_MyD88 Rank (after) [9]: 242
- P3_MyD88 Rank (before) [10]: 924

Sequence: NELVRVWSSKANSRVG
- P3_MyD88 Rank (after) [3]: 716
- P3_MyD88 Rank (before) [4]: 3402

Sequence: AVDKGIDKIQTPLKNA
- Rank (after) [11]: 430
- Rank (before) [12]: 1896

Sequence: YTALNHSGFHTFRDND
- P3_MyD88 Rank (after) [9]: 253
- P3_MyD88 Rank (before) [10]: 1702

Sequence: GFREGLWRLLELSKK
- P3_MyD88 Rank (after) [1]: 669
- P3_MyD88 Rank (before) [2]: 1819

Sequence: LVAHEISKKLKNFPTI
- P3_MyD88 Rank (after) [7]: 518
- P3_MyD88 Rank (before) [8]: 2289

Sequence: SSWWALEELAHIIE
- P8_MyD88 Rank (after) [1]: 634
- P8_MyD88 Rank (before) [2]: 3803

Sequence: SMTPLSDFWKELALVL
- Rank (after) [13]: 97
- Rank (before) [14]: 101
- Population [15]: 0.0231%
